Test results reported in the supplement of paper PMC10307832.

Experiments:
Experiment in all cases: relative viability (nuclei count vs DMSO), 5 days (fraction); higher = more cells survive
[1] = compound: NCC(=O)Nc1ccc(-n2nc(C(F)(F)F)cc2-c2ccc3c(ccc4ccccc43)c2)cc1 + CC(=O)c1c(C)c2cnc(Nc3ccc(N4CCNCC4)cn3)nc2n(C2CCCC2)c1=O [Palbociclib] (partner 0.5 µM)
Method in brief: (§1)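 Each reported value is a median over duplicate plates. It expresses relative viability: treated-well nuclei count divided by vehicle-well nuclei count. Lung cancer cell lines in 1536-well plates were dosed by pin tool a day after seeding, alone with one drug or with a fixed anchor-drug dose plus five library-drug doses (not always all listed) in √10 steps, and nuclei were counted after 5 days.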

[2] = compound: NCC(=O)Nc1ccc(-n2nc(C(F)(F)F)cc2-c2ccc3c(ccc4ccccc43)c2)cc1 + O=C(CCCCCCC(=O)Nc1ccccc1)NO [Vorinostat] (partner 1 µM)
Method in brief: as §1

[3] = compound: NCC(=O)Nc1ccc(-n2nc(C(F)(F)F)cc2-c2ccc3c(ccc4ccccc43)c2)cc1 + CS(=O)(=O)N1CCN(Cc2cc3nc(-c4cccc5[nH]ncc45)nc(N4CCOCC4)c3s2)CC1 [Pictilisib] (partner 1 µM)
Method in brief: as §1

[4] = compound: NCC(=O)Nc1ccc(-n2nc(C(F)(F)F)cc2-c2ccc3c(ccc4ccccc43)c2)cc1 + Cc1cc(Nc2cc(N3CCN(C)CC3)nc(Sc3ccc(NC(=O)C4CC4)cc3)n2)n[nH]1 [Tozasertib] (partner 0.1 µM)
Method in brief: as §1

| Cell Line | relative viability ([1]; first compound 0.02 µM) | relative viability ([1]; first compound 0.06325 µM) | relative viability ([1]; first compound 0.2 µM) | relative viability ([1]; first compound 0.6325 µM) | relative viability ([1]; first compound 2 µM) | relative viability ([2]; first compound 0.02 µM) | relative viability ([2]; first compound 0.06325 µM) | relative viability ([2]; first compound 0.2 µM) | relative viability ([2]; first compound 0.6325 µM) | relative viability ([2]; first compound 2 µM) | relative viability ([3]; first compound 0.02 µM) | relative viability ([3]; first compound 0.06325 µM) | relative viability ([3]; first compound 0.2 µM) | relative viability ([3]; first compound 0.6325 µM) | relative viability ([3]; first compound 2 µM) | relative viability ([4]; first compound 0.02 µM) | relative viability ([4]; first compound 0.06325 µM) | relative viability ([4]; first compound 0.2 µM) | relative viability ([4]; first compound 0.6325 µM) | relative viability ([4]; first compound 2 µM) |
| --- | --- | --- | --- | --- | --- | --- | --- | --- | --- | --- | --- | --- | --- | --- | --- | --- | --- | --- | --- | --- |
| HCC-78 | 0.541 | 0.482 | 0.526 | 0.403 | 0.496 | 0.398 | 0.481 | 0.472 | 0.466 | 0.454 | 0.208 | 0.245 | 0.216 | 0.205 | 0.203 | 0.408 | 0.415 | 0.501 | 0.403 | 0.411 |
| HCC-366 | 0.399 | 0.449 | 0.378 | 0.394 | 0.355 | 0.254 | 0.423 | 0.419 | 0.357 | 0.435 | 0.147 | 0.205 | 0.174 | 0.172 | 0.141 | 0.42 | 0.18 | 0.118 | 0.15 | 0.0801 |
| HCC-827 | 0.501 | 0.545 | 0.509 | 0.486 | 0.504 | 0.906 | 0.335 | 0.876 | 0.9 | 0.834 | 1.01 | 1.15 | 1.05 | 0.79 | 0.896 | 0.38 | 0.437 | 0.389 | 0.427 | 0.446 |
| HOP-62 | 0.453 | 0.384 | 0.42 | 0.452 | 0.545 | 0.536 | 0.534 | 0.668 | 0.501 | 0.7 | 0.775 | 0.577 | 0.68 | 0.752 | 0.623 | 0.364 | 0.409 | 0.37 | 0.409 | 0.365 |
| IA-LM |  |  |  |  |  | 0.989 | 1.08 | 0.981 | 0.908 | 0.896 | 0.444 | 0.356 | 0.302 | 0.477 | 0.288 |  |  |  |  |  |
| LC-2-ad | 0.507 | 0.462 | 0.463 | 0.469 | 0.473 | 0.68 | 0.757 | 0.769 | 0.673 | 0.76 | 0.428 | 0.503 | 0.377 | 0.453 | 0.403 | 0.399 | 0.546 | 0.486 | 0.469 | 0.42 |
| LCLC-97TM1 | 0.249 | 0.205 | 0.22 | 0.233 | 0.199 | 0.596 | 0.713 | 0.699 | 0.69 | 0.637 | 0.29 | 0.215 |  | 0.178 | 0.187 | 0.228 | 0.26 | 0.234 | 0.206 | 0.206 |
| LCLC-103H | 0.41 | 0.503 | 0.483 | 0.413 | 0.504 | 0.674 | 0.831 | 0.818 | 0.77 | 0.862 | 0.606 | 0.61 | 0.571 | 0.648 | 0.673 | 0.416 | 0.477 | 0.457 | 0.471 | 0.448 |
| LK-2 | 0.538 | 0.831 | 0.539 | 0.675 | 0.636 | 0.445 | 0.279 | 0.244 | 0.288 | 0.256 | 0.536 | 0.669 | 0.462 | 0.577 | 0.616 | 0.159 | 0.185 | 0.183 | 0.188 | 0.171 |
| LOU-NH91 | 0.647 | 0.519 | 0.528 | 0.541 | 0.582 | 0.895 | 0.977 | 0.917 | 0.872 | 1.01 | 0.497 | 0.622 | 0.49 | 0.476 | 0.537 | 0.621 | 0.716 | 0.649 | 0.663 | 0.797 |
| LU99A | 0.418 | 0.474 | 0.434 | 0.487 | 0.438 | 0.415 | 0.588 | 0.519 | 0.56 | 0.535 | 0.338 | 0.36 | 0.321 | 0.311 | 0.294 | 0.241 | 0.273 | 0.259 | 0.271 | 0.265 |
| LXF-289 | 0.591 | 0.599 | 0.59 | 0.588 | 0.628 | 0.737 | 0.91 | 0.777 | 0.731 | 0.787 | 0.868 | 0.583 | 0.762 | 0.753 | 0.798 | 0.233 | 0.196 | 0.202 | 0.214 | 0.197 |
| NCI-H522 | 0.844 | 0.996 | 0.998 | 0.934 | 0.992 | 0.91 | 0.836 | 0.802 | 0.973 | 0.903 |  |  |  |  |  |  | 0.589 | 0.537 | 0.505 | 0.516 |
| NCI-H596 |  |  |  |  |  | 0.636 | 0.705 | 0.706 | 0.731 | 0.526 | 0.412 | 0.458 | 0.425 | 0.404 | 0.407 | 1 | 0.911 | 1.02 | 0.925 | 0.903 |
| NCI-H1299 |  |  |  |  |  |  |  |  |  |  | 0.346 | 0.8 | 0.804 | 0.781 | 0.732 |  |  |  |  |  |
| NCI-H1563 |  |  |  |  |  |  |  |  |  |  | 0.69 | 0.683 | 0.669 | 0.611 | 0.622 |  |  |  |  |  |
| NCI-H1648 | 0.283 | 0.267 | 0.268 | 0.281 | 0.264 | 0.416 | 0.423 | 0.762 | 0.408 | 0.536 |  |  |  |  |  | 0.362 | 0.532 | 0.502 | 0.503 | 0.399 |
| NCI-H1703 |  |  |  |  |  |  |  |  |  |  | 0.218 | 0.244 | 0.278 | 0.255 | 0.262 |  |  |  |  |  |
| NCI-H1792 | 0.651 |  | 0.696 | 0.591 | 0.66 |  |  |  |  |  | 0.244 | 0.319 | 0.277 | 0.315 | 0.344 |  |  |  |  |  |
| NCI-H2342 | 0.627 | 0.552 | 0.479 | 0.494 | 0.523 | 0.871 | 0.817 | 0.663 | 0.864 | 0.743 |  |  |  |  |  | 0.652 | 0.676 | 0.45 | 0.448 | 0.492 |
| SW 900 | 0.513 | 0.661 | 0.534 | 0.535 | 0.641 | 0.492 | 0.464 | 0.44 | 0.546 | 0.53 |  |  |  |  |  |  | 0.509 | 0.594 | 0.533 | 0.511 |
